Results taken from patent US10577322B2, “5-methoxytryptophan and its derivatives and uses thereof” (National Health Research Institutes, priority 2015, dated 2020).

Tests used:
[1] = system: LPS-induced cytokine production; format: cell-based, mouse
Method: Mouse RAW264.7 macrophages were from the American Type Culture Collection and cultured in DMEM containing 10% FBS. Cells were typically pre-incubated with or without 5-MTP (Sigma-Aldrich) for 30 min before LPS treatment, unless specified otherwise. The duration of LPS (100 ng/ml) treatment varied depending on the experiment.
(§1) Cytokine levels in the culture supernatants and serum were determined in microtiter plates (96-well) by a specific sandwich ELISA (Biosource) as previously described (Wu, J. Y. & Kuo, C. C. Pivotal role of ADP-ribosylation factor 6 in Toll-like receptor 9-mediated immune signaling. J Biol Chem 287, 4323-4334 (2012)) (Lee, G. L., et al. TLR 2 induces vascular smooth muscle cell migration through cAMP response element-binding protein-mediated interleukin-6 production. Arterioscler Thromb Vasc Biol 32, 2751-2760 (2012); hereinafter, Lee, G. L., et al.).

iNOS = iNOS immunohistochemistry in lung tissues of LPS-treated mice; format: in vivo; conditions: LPS 60 mg/kg; 12 h, 16 h and 24 h
Method: Prior to immunohistochemical detection of COX-2, iNOS, Ly6g, or cleaved caspase-3 in lung sections, sections were deparaffinized with xylene, progressively rehydrated through graded alcohols. Antigen sites were retrieved by heating the sections on slides in pH 8 EDTA antigen. retrieval (Trilogy; Cell Marque Corporation) in electric pressure cooker for 15 min. […] All antibodies described hereafter were diluted in blocking buffer. Sections were incubated at room temperature for 2 h with primary antibody and then washed in PBST. The sections were incubated with primary antibody amplifier quanta (Thermo) for 10 minutes. After rinsing with PBST, the sections were incubated with HRP Polymer Quanto (Thermo) for 10 minutes and washed three times with PBST. COX-2, iNOS, Ly6g and cleaved caspase-3 were visualized by the addition of DAB Quanto Chromogen: Substrate for 3 minutes. Tissues were also counterstained with hematoxylin.
Moreover, paraffin-embedded sections were prepared from lungs of mice injected with 60 mg/kg LPS with or without saline or 5-MTP at 12 h, 16 h and 24 h. COX-2 and inducible nitric oxide synthase (iNOS) protein levels in lung tissues were determined by immunohistochemistry by staining with anti-COX-2 and anti-iNOS antibodies, respectively. The results are shown in FIGS. 6A-6B, in which scale bars represent 100 μm. […]

[2] = system: proinflammatory cytokines; assay: Proinflammatory cytokines level in serum of LPS-treated mice (ELISA); format: in vivo
Method: C57BL/6 mice (6-8 wks old) were treated intraperitoneally with saline or with different concentrations of 5-MTP (23.4 or 100 mg/kg) for 30 min before intraperitoneal administration of LPS (60 mg/kg). Animals were monitored for survival and other clinical signs including ruffled fur, lethargy, diarrhea, and body weight loss. Some animals were sacrificed at different times after LPS injection. Blood samples, peritoneal exudates, lungs, and spleens were collected. All mouse experiments were approved by the institutional Animal Care and Use Committee, National Health Research Institutes.
as §1
Mice were injected intraperitoneally with or without different concentrations of 5-MTP or saline for 30 min, followed by LPS administration for the indicated time. Proinflammatory cytokines level in serum was measured by ELISA. (n=6 per group).

NF-κB = NF-κB promoter-luciferase assay in RAW264.7 cells; format: cell-based, mouse; conditions: LPS 8 h
Method: RAW264.7 macrophages were cotransfected with COX-2 promoter-luciferase, IL-6 promoter-luciferase constructs as previously described (Lee, G. L., et al.) or p5xNF-κB-luciferase (Stratagene) and pcDNA3.1-β-galactosidase plasmids using FuGENE 6 (Roche). After overnight transfection, the cells were incubated with or without LPS in the presence or absence of 5-MTP for 8 h. After treatment, cells were lysed, and luciferase activity was measured using an assay kit (Promega). β-galactosidase activity was used to normalize the data.
After pretreating RAW264.7 cells with different concentrations of 5-MTP for 30 min, cells were stimulated with LPS for 8 h. NF-κB promoter activity as measured by NF-κB promoter-luciferase assay.

p300 HAT [3] = assay: p300 HAT activity in peritoneal macrophages; format: cell-based, mouse; conditions: LPS, 5-MTP 50 μM
Method: p300 HAT activity in peritoneal macrophages treated with LPS in the presence or absence of 5-MTP (50 μM) for the indicated time was measured with an p300 HAT activity assay kit.

p300 HAT [4] = assay: p300 HAT activity in lung tissues of mice; format: in vivo; conditions: 8-24 h after LPS, 5-MTP 23.4 mg/kg
Method: In addition, p300 HAT activity in lung tissues of mice (n=6 mice/group) at 8-24 h after LPS infusion with or without 5-MTP(23.4 mg/kg) was determined by an assay kit.

vascular calcification = assay: High fat diet-induced arterial calcification in ApoE-deficient mice (von Kossa); format: in vivo; conditions: 23.4 mg/kg 3 times a week i.p., 20 weeks
Method: ApoE-deficient mice were fed with on a Western high fat diet containing 1.25% cholesterol and 21% fat (Research Diets) starting at 6 weeks of age. The mice were simultaneously treated with vehicle (PBS) or 5-MTP (23.4 mg/kg body weight, 3 times a week) by intraperitoneal injection. After 20 weeks, the aortic trees were dissected and lesions examined in the aortic arch and its branches. Vascular calcifications in the aortic root were evaluated by von Kossa staining.
Vascular smooth muscle cell (VSMC) calcification is the major phenomenon to induce atherosclerotic vascular calcification in cardiovascular disease (CVD). We next investigated the effect of 5-MTP derivatives on VSMC calcification.

[5] = LPS-treated mice, dose- and time-dependent

## COc1ccc2[nH]cc(C[C@H](N)C(=O)O)c2c1 [5-MTP, 5-methoxytryptophan]
[1]
  Suppressive activity in LPS-induced cytokine production: +
iNOS
  iNOS expression in lung tissues: suppresses
[2]; 5-MTP at 23.4 mg/kg
  all the tested serum cytokines: significantly reduced
[2]; 5-MTP at 100 mg/kg
  all the tested serum cytokines: reduced the cytokines to the basal level
[2]; LPS-treated mice, data not shown
  rise of IL-12: suppressed the rise
[2]; [5]
  blood level of IL-1β: abated the elevation
  blood level of IL-6: abated the elevation
  blood level of INF-κ: abated the elevation
  blood level of TNF-α: abated the elevation
NF-κB
  NF-κB promoter activity (transactivation): suppressed NF-κB transactivation in a concentration-dependent manner
p300 HAT [3]
  p300 HAT activation: significantly blocked p300 HAT activation up to 24 h
p300 HAT [4]
  p300 HAT activity in lung tissues: suppressed by 5-MTP
Vascular calcification
  high fat diet-induced vascular calcification: prevented
